Several values for one entry are separate records, joined by “and”; a condition that tells them apart may be missing. Equal entries are not always repeated. Inconclusive results and toxic doses are left out.
System: P388 leukemia ip, CD2F1 mice, survival T/C
Assay: NCI In Vivo Anticancer Drug Screen. Data for tumor model P388 Leukemia (intraperitoneal) in CD2F1 (CDF1) mice
Conditions: endpoint: median survival time, higher = longer survival
Procedure, shortened: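 Mice carrying the transplanted tumor received test compound or vehicle. Survival was recorded in each group, and the value is the treated-group measurement divided by that of the vehicle-treated control group.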

[1] = dose: 50.0 mg/kg/injection, schedule: Q01DX009 (ip), vehicle: Klucel (hydroxypropylcellulose) (HPC)
[2] = dose: 100.0 mg/kg/injection, schedule: Q01DX009 (ip), vehicle: Klucel (hydroxypropylcellulose) (HPC)
[3] = dose: 50.0 mg/kg/injection, schedule: Q01DX009 (ip), vehicle: saline with Tween-80
[4] = dose: 100.0 mg/kg/injection, schedule: Q01DX009 (ip), vehicle: saline with Tween-80
[5] = dose: 200.0 mg/kg/injection, schedule: Q01DX009 (ip), vehicle: saline with Tween-80
[6] = dose: 50.0 mg/kg/injection, schedule: Q01DX005 (ip), vehicle: saline with Tween-80
[7] = dose: 100.0 mg/kg/injection, schedule: Q01DX005 (ip), vehicle: saline with Tween-80
[8] = dose: 200.0 mg/kg/injection, schedule: Q01DX005 (ip), vehicle: saline with Tween-80
[9] = dose: 25.0 mg/kg/injection, schedule: Q01DX009 (ip), vehicle: saline with Tween-80
[10] = dose: 60.0 mg/kg/injection, schedule: Q01DX005 (ip), vehicle: saline
[11] = dose: 120.0 mg/kg/injection, schedule: Q01DX005 (ip), vehicle: saline
[12] = dose: 240.0 mg/kg/injection, schedule: Q01DX005 (ip), vehicle: saline
[13] = dose: 25.0 mg/kg/injection, schedule: Q01DX005 (ip), vehicle: saline
[14] = dose: 50.0 mg/kg/injection, schedule: Q01DX005 (ip), vehicle: saline
[15] = dose: 12.5 mg/kg/injection, schedule: Q01DX005 (ip), vehicle: saline

For CC1(C)NN=C(SCc2ccccc2)NC1=O, the T/C (dose: 100.0 mg/kg/injection, schedule: Q04DX003 (ip), vehicle: Klucel (hydroxypropylcellulose) (HPC)) was 98 % of control, the T/C (dose: 200.0 mg/kg/injection, schedule: Q04DX003 (ip), vehicle: Klucel (hydroxypropylcellulose) (HPC)) was 100 % of control and the T/C (dose: 400.0 mg/kg/injection, schedule: Q04DX003 (ip), vehicle: Klucel (hydroxypropylcellulose) (HPC)) was 92 % of control.
CCSC(=S)NC#N was tested, and the T/C [1] was 109 % of control, the T/C [2] was 93 % of control and the T/C (dose: 200.0 mg/kg/injection, schedule: Q01DX009 (ip), vehicle: Klucel (hydroxypropylcellulose) (HPC)) was 88 % of control.
CCCCONc1ccnc(=O)[nH]1 was tested, and the T/C (dose: 37.5 mg/kg/injection, schedule: Q01DX001 (ip), vehicle: saline) was 100 % of control, the T/C (dose: 75.0 mg/kg/injection, schedule: Q01DX001 (ip), vehicle: saline) was 100 % of control and the T/C (dose: 150.0 mg/kg/injection, schedule: Q01DX001 (ip), vehicle: saline) was 107 % of control.
In the case of Cc1ccc(S(=O)(=O)OCCC(C)(C)C)cc1, the T/C [3] is reported as 106 % of control, the T/C [4] is reported as 107 % of control and the T/C [5] is reported as 111 % of control.
O=C(c1ccccc1)c1c(-c2ccccc2)noc1-c1ccccc1 was tested, and the T/C (dose: 100.0 mg/kg/injection, schedule: Q04DX003 (ip), vehicle: saline) was 109 % of control, the T/C (dose: 200.0 mg/kg/injection, schedule: Q04DX003 (ip), vehicle: saline) was 100 % of control and the T/C (dose: 400.0 mg/kg/injection, schedule: Q04DX003 (ip), vehicle: saline) was 108 % of control.
In the case of COc1ccc(/C=N/NC(=O)c2ccc(OCc3nc4ccccc4[nH]3)cc2)cc1, the T/C (dose: 25.0 mg/kg/injection, schedule: Q01DX005 (ip), vehicle: saline with Tween-80) is reported as 100 % of control, the T/C [6] is reported as 105 % of control and the T/C [7] is reported as 100 % of control. For the same molecule, the T/C [8] was 100 % of control.
In the case of CC1(c2ccc(Cl)cc2)OC(=O)C(=Cc2ccc([N+](=O)[O-])s2)C(=O)O1 (centres undefined), the T/C [4] is reported as 122 % of control.
For CCCOc1ccc(C(N)=S)cc1, the T/C (dose: 12.5 mg/kg/injection, schedule: Q01DX009 (ip), vehicle: Klucel (hydroxypropylcellulose) (HPC)) was 98 % of control and 103 % of control, the T/C (dose: 25.0 mg/kg/injection, schedule: Q01DX009 (ip), vehicle: Klucel (hydroxypropylcellulose) (HPC)) was 101 % of control and 105 % of control and the T/C [1] was 115 % of control and 120 % of control and 96 % of control. The T/C [2] was 86 % of control.
COc1ccc2[nH]cc(C3CCCN4CCCCC34)c2c1 (centres undefined) was tested, and the T/C [6] was 101 % of control and the T/C [7] was 99 % of control.
In the case of COc1ccc2[nH]cc(CCN(C)C)c2c1, the T/C (dose: 12.5 mg/kg/injection, schedule: Q01DX009 (ip), vehicle: saline with Tween-80) is reported as 115 % of control, the T/C (dose: 16.5 mg/kg/injection, schedule: Q01DX009 (ip), vehicle: saline with Tween-80) is reported as 113 % of control and the T/C [9] is reported as 104 % of control. The T/C (dose: 37.5 mg/kg/injection, schedule: Q01DX009 (ip), vehicle: saline with Tween-80) was 109 % of control and the T/C [3] was 115 % of control.
With COc1c2occc2c(S(=O)(=O)Cl)c2ccc(=O)oc12 the T/C (dose: 100.0 mg/kg/injection, schedule: Q01DX001 (ip), vehicle: saline with Tween-80) was 95 % of control, the T/C (dose: 200.0 mg/kg/injection, schedule: Q01DX001 (ip), vehicle: saline with Tween-80) was 109 % of control and the T/C (dose: 400.0 mg/kg/injection, schedule: Q01DX001 (ip), vehicle: saline with Tween-80) was 100 % of control.
NC(CS/C(Cl)=C/Cl)C(=O)O (centres undefined) was tested, and the T/C (dose: 12.0 mg/kg/injection, schedule: Q01DX009 (ip), vehicle: saline with Tween-80) was 117 % of control and the T/C (dose: 27.0 mg/kg/injection, schedule: Q01DX009 (ip), vehicle: saline with Tween-80) was 117 % of control.
O=C(O)/C(Br)=C/c1ccccc1 was tested, and the T/C [3] was 87 % of control, the T/C [4] was 91 % of control and the T/C [5] was 87 % of control.
For CC(C)N(CCO)CC(O)Cn1cnc2c(N)ncnc21 (centres undefined) (tested in a mixture with another compound), the T/C [10] was 97 % of control, the T/C [11] was 94 % of control and the T/C [12] was 93 % of control.
N#Cc1c(NC(=S)NC(=O)c2ccc(Cl)c(Cl)c2)sc(=S)c2c1CCCC2 was tested, and the T/C [3] was 108 % of control, the T/C [4] was 96 % of control and the T/C [5] was 92 % of control.
In the case of N#Cc1cn(N(CCO)CCO)c(=O)[nH]c1=O, the T/C [13] is reported as 105 % of control, the T/C [14] is reported as 106 % of control and the T/C (dose: 100.0 mg/kg/injection, schedule: Q01DX005 (ip), vehicle: saline) is reported as 105 % of control. For the same molecule, the T/C (dose: 200.0 mg/kg/injection, schedule: Q01DX005 (ip), vehicle: saline) was 103 % of control.
In the case of Cc1c2cc[n+](C)cc2c(C)c2c1[nH]c1ccc(O)c(-[n+]3ccccc3)c12, the T/C (dose: 2.5 mg/kg/injection, schedule: Q04DX003 (ip), vehicle: saline) is reported as 113 % of control and the T/C (dose: 5.0 mg/kg/injection, schedule: Q04DX003 (ip), vehicle: saline) is reported as 111 % of control.
For CN(C)c1ccc(/C=C/c2cc[n+](C)cc2)cc1, the T/C (dose: 2.0 mg/kg/injection, schedule: Q01DX009 (ip), vehicle: saline with Tween-80) was 110 % of control, the T/C (dose: 2.0 mg/kg/injection, schedule: Q04DX003 (ip), vehicle: saline with Tween-80) was 91 % of control and the T/C (dose: 4.0 mg/kg/injection, schedule: Q01DX009 (ip), vehicle: saline with Tween-80) was 100 % of control. For the same molecule, the T/C (dose: 4.0 mg/kg/injection, schedule: Q04DX003 (ip), vehicle: saline with Tween-80) was 100 % of control, the T/C (dose: 8.0 mg/kg/injection, schedule: Q01DX009 (ip), vehicle: saline with Tween-80) was 100 % of control and the T/C (dose: 8.0 mg/kg/injection, schedule: Q04DX003 (ip), vehicle: saline with Tween-80) was 108 % of control.
With COC(=O)Nc1cn2c(n1)SCC2 the T/C (dose: 60.0 mg/kg/injection, schedule: Q01DX005 (ip), vehicle: saline with Tween-80) was 98 % of control, the T/C (dose: 120.0 mg/kg/injection, schedule: Q01DX005 (ip), vehicle: saline with Tween-80) was 95 % of control and the T/C (dose: 240.0 mg/kg/injection, schedule: Q01DX005 (ip), vehicle: saline with Tween-80) was 100 % of control.
With O=S1(=O)OCCCO1 the T/C [15] was 109 % of control, the T/C [13] was 98 % of control and the T/C [14] was 124 % of control.
For O=C1OC(Cl)C=C1c1ccccc1 (centres undefined), the T/C (dose: 50.0 mg/kg/injection, schedule: Q01DX009 (ip), vehicle: suspension in saline) was 95 % of control, the T/C (dose: 100.0 mg/kg/injection, schedule: Q01DX009 (ip), vehicle: suspension in saline) was 101 % of control and the T/C (dose: 200.0 mg/kg/injection, schedule: Q01DX009 (ip), vehicle: suspension in saline) was 101 % of control.
With O=C1CNC(=O)N1CN1CCc2ccccc2C1 the T/C (dose: 50.0 mg/kg/injection, schedule: Q01DX005 (ip), vehicle: Klucel (hydroxypropylcellulose) (HPC)) was 99 % of control, the T/C (dose: 100.0 mg/kg/injection, schedule: Q01DX005 (ip), vehicle: Klucel (hydroxypropylcellulose) (HPC)) was 105 % of control and the T/C (dose: 200.0 mg/kg/injection, schedule: Q01DX005 (ip), vehicle: Klucel (hydroxypropylcellulose) (HPC)) was 99 % of control.
COc1cc(/C=C2/SC(=S)NC2=O)cc(OC)c1OC was tested, and the T/C [9] was 100 % of control, the T/C [3] was 102 % of control and the T/C [4] was 96 % of control. The T/C [5] was 96 % of control.
CC(C)[C@@H]1CC[C@@H](C)C[C@H]1N was tested, and the T/C [15] was 107 % of control, the T/C [13] was 98 % of control and the T/C [6] was 113 % of control. The T/C [14] was 100 % of control.
CCN(CC)CCOC(C)(C#CC(C)(O)CC)CC (centres undefined) was tested, and the T/C [6] was 100 % of control and the T/C [7] was 106 % of control.
For OCNC(=S)c1ccccc1, the T/C [6] was 105 % of control and the T/C [7] was 105 % of control.
COc1cc2c(cc1OC)-c1[nH]ncc1CC2 was tested, and the T/C [3] was 101 % of control, the T/C [4] was 101 % of control and the T/C [5] was 106 % of control.
In the case of CN(C)C1CCc2[nH]c3c(F)cc(F)cc3c2C1 (centres undefined), the T/C [3] is reported as 102 % of control.
For Nc1c(S(=O)(=O)O)cc(Nc2cccc(CO)c2)c2c1C(=O)c1ccccc1C2=O, the T/C (dose: 12.5 mg/kg/injection, schedule: Q01DX001 (ip), vehicle: saline) was 99 % of control, the T/C (dose: 25.0 mg/kg/injection, schedule: Q01DX001 (ip), vehicle: saline) was 99 % of control and the T/C (dose: 50.0 mg/kg/injection, schedule: Q01DX001 (ip), vehicle: saline) was 98 % of control. The T/C (dose: 100.0 mg/kg/injection, schedule: Q01DX001 (ip), vehicle: saline) was 106 % of control.
For CC(C)CC1N=C(N(C)N=O)OP1(=O)NNc1ncccn1 (centres undefined), the T/C [10] was 97 % of control, the T/C [11] was 102 % of control and the T/C [12] was 99 % of control.
CC(C)(C)OC(=O)NC(Cc1ccc(OCc2c(Cl)cccc2Cl)cc1)C(=O)O (centres undefined) was tested, and the T/C [6] was 104 % of control, the T/C [7] was 100 % of control and the T/C [8] was 100 % of control.
For CC(C)(C)OC(=O)NC(CO)C(=O)O (centres undefined), the T/C [3] was 96 % of control, the T/C [4] was 96 % of control and the T/C [5] was 99 % of control.
With COc1ccc(-n2c(C)c(COC(C)=O)c(COC(C)=O)c2C)cc1 the T/C (dose: 12.5 mg/kg/injection, schedule: Q01DX009 (ip), vehicle: saline) was 157 % of control and 163 % of control.

— PubChem BioAssay AID330 (DTP/NCI, 2004)
